Target: Cyclin-dependent kinase 4 (Homo sapiens, UniProt P11802)
Assay: Caliper Mobility Shift Assay: CDK4: The test compound was dissolved in DMSO and diluted with a kinase buffer solution (20 mM HEPES-pH 7.5, 0.01% Triton X-100, 10 mM MgCl2, 2 mM DTT) and 5 μL of compound at 5-fold final concentration of reaction dissolved in 10% DMSO was added in a 384-well plate. The compound-free control well was 5 μL of 10% DMSO, and the no-activity control well was 5 μL of kinase buffer. 10 μL of a 2.5-fold diluted CDK4 enzyme solution (GST-CDK4(1-303 end)) was added and incubated at room temperature for 10 min, and then 10 μL of the 2.5-fold diluted substrate solution Peptide FAM-P8 was added. The reaction was stopped by adding 25 μL of stop solution after incubation at 28° C. for 3 h, and the conversion rate data was read on a Caliper EZ Reader II (Caliper Life Sciences) and the conversion rate was converted to inhibition rate data according to above method.

Chain of Cyclin-dependent kinase 4 (P11802 whole entry): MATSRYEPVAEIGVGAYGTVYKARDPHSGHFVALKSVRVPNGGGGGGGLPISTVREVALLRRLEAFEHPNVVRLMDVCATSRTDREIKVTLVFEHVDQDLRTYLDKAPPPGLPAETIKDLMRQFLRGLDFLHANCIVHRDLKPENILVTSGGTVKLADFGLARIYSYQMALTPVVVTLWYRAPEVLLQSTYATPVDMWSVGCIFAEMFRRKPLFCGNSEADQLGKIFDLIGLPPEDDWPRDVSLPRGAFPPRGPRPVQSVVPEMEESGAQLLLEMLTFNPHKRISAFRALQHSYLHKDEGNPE

| Compound | IC50 |
| --- | --- |
| CC(C)c1c2ccc(-c3nc(Nc4ccc(N5CCNCC5)cn4)ncc3F)c(Cl)c2nn1C | < 20 nM |
| CC(C)c1c(C#N)n(C2CC2)c2ccc(-c3nc(Nc4ccc(CN5CCN(C6CC6)CC5)cn4)ncc3F)cc12 | < 20 nM |

Reference: ChEMBL document CHEMBL5727392, “2,4-disubstituted pyrimidines as CDK inhibitors” (2019)
